The values that follow come from patent US20250051283A1, “THERAPEUTIC COMPOUNDS AND METHODS” (priority 2023, published 2025).

One data set deals with EV-D68 2A^pro (Enterovirus D68, UniProt A0A097BW19). Description: FRET-based enzymatic assay of EV-D68 2Apro inhibition. As to conditions: for IC50: read-out: Enzymatic inhibitory activity IC50. Format: biochemical. As for the experimental part: (§1) Protein expression and purification. EV-D68 2A^pro gene from strain US/KY/14-18953 was ordered from Genscript (Piscataway, NJ) in pET28b(+) vector with E. coli codon optimization. 2A^pro gene was subcloned into pE-SUMOstar vector according to the manufacturers protocol. Plasmid encoding WT-2A^pro was transformed into BL21(DE3) competent E. coli cells, and a single colony was picked and used to inoculate 10 mL of L.B. grown supplemented with 50 μg/mL kanamycin at 37° C. at 250 rpm. The 10 mL inoculant was added to 1 L of L.B. with 50 μg/mL kanamycin and grown to an OD600 of 0.8-1.0, cooled to 18° C., then induced using 0.5 mM IPTG. Induced cultures were incubated at 18° C. for an additional 24 h, then harvested and resuspended in lysis buffer (25 mM Tris (pH 7.5); 750 mM NaCl, 2 mM DTT with 0.5 mg/mL lysozyme, 0.5 mM PMSF and 0.02 mg/mL DNase I) and lysed with alternating sonication and French press cycles. The cell debris were removed by centrifugation at 12,000×g for 45 min […]. The supernatant was incubated with Ni-NTA resin for over 2 h at 4° C. on a rotator. The Ni-NTA resin was thoroughly washed with 50 mM imidazole in wash buffer (50 mM Tris (pH 7.5), 150 mM NaCl, and 2 mM DTT); for the SUMO-tagged protein, the protein was directly eluted with 300 mM imidazole; for the nontagged 2A^pro Ni-NTA resin was treated with SUMO Protease 1 to remove the SUMO tag, then 2A^pro was washed off from the column with 10 mM imidazole in wash buffer. The imidazole was removed via dialysis or 10 K molecular weight cut-off centrifugal concentrator spin column. The purity of the protein was confirmed with SDS-PAGE. The protein concentration was determined by classic BCA assay using bovine serum albumin as a standard. EV-D68 3C^pro in pET28b(+) vector was expressed as previously described^10.
(§2) Peptide synthesis. The FRET substrate of EV-D68 2A^pro, Dabcyl-KIRIVNT/GPGFGGE-Edans, was synthesized using the Fmoc solid phase synthesis strategy.
(§3) Enzymatic assays. The reaction buffer contains 50 mM Tris (pH7.0), 150 mM NaCl, 10% Glycerol, and 2 mM DTT, and the reaction was carried out at 30° C. in Cytation 5 imaging reader (Fisher Scientific) with EX360/40-EM460/40 filter. Reactions were monitored every 90 sec. […] The reaction was initiated by adding 20 μM of FRET substrate, and the reaction was monitored for 2 hours and initial velocity was calculated for the first 30 minutes via linear regression.

The test system of a further data set is EV-D68 US/MO/14-18947. Description: CPE assay (neutral red) with EV-D68 US/MO/14-18947 in R.D. cells. The class given is cell-based, Enterovirus D68. How it is done:
(§4) Cell lines and viruses. Human rhabdomyosarcoma (R.D., ATCC, CCL-136) cells were maintained at 37° C. in a 5% CO2 atmosphere and cultured in Dulbecco's modified Eagle's medium (DMEM) supplemented with 10% fetal bovine serum (FBS) and 1% penicillin-streptomycin antibiotics. The following reagents were obtained through BEI Resources, NIAID, NIH: Human Enterovirus D68, US/MO/14-18949, NR-49130; Enterovirus D68, US/MO/14-18947, NR-49129; Enterovirus D68, US/IL/14-18952, NR-49131; Enterovirus D68, US/KY/14-18953, NR-49132; Enterovirus D68, US/IL/14-18956, NR-49133.
(§5) Antiviral assays. Cells for antiviral assays were seeded and grown overnight at 37° C. in a 5% CO2 atmosphere for ˜90% confluency the next day. For all infections, cells were washed with PBS containing magnesium and calcium and infected with virus diluted in DMEM with 2% FBS and 30 mM MgCl2. Viruses were incubated for at least 1 h at 33° C. in a 5% CO2 atmosphere, followed by the addition of compound as well as 1% penicillin-streptomycin. For CC50 measurements, the experiment was performed similarly but excluded viral infection. For cytopathic effect (CPE) assays, cells were stained with 66 µg/mL neutral red for 2 h and neutral red uptake was measured at absorbance 540 nm using a Multiskan FC Microplate Photometer (ThermoFisher Scientific). The EC50 and CC50 values were calculated from best-fit dose response curves using GraphPad Prism. For plaque reduction assays, an 1.2% avicel microcrystalline cellulose (FMC BioPolymer, Philadelphia, PA) overlay was used and cells were stained after 3 days as previously described^26.

The target in data set [1] is T1, EV-D68 2A^pro (WT-2A^pro, strain US/KY/14-18953, expressed in E. coli BL21(DE3) from pE-SUMOstar vector) (enterovirus D68, UniProt A0A097BW19).
T1 construct: E. coli-codon-optimised gene, pE-SUMOstar, His-SUMO tag (removed with SUMO protease for nontagged form), E. coli BL21(DE3), Ni-NTA; 7JRE is the C107A mutant
Description: FRET-based enzymatic assay of EV-D68 2A^pro inhibition (FRET substrate Dabcyl-KIRIVNT/GPGFGGE-Edans). The class given is biochemical. As for the experimental part: FIG. 4. […] Key structural variations compared to telaprevir were highlighted in red. Enzymatic inhibitory activity IC50 value was determined in the FRET-based assay. Antiviral EC50 value was determined in the CPE assay with EV-D68 US/MO/14-18947 in R.D. cells. Cytotoxicity CC50 value was determined using the neutral red uptake method in R.D. cells. The results are the mean±standard deviation of two independent experiments with three repeats in each experiment.
FIG. 5. […] Key structural variations compared to Jun8861 were highlighted in red. Enzymatic inhibitory activity IC50 value was determined in the FRET-based assay. Antiviral EC50 value was determined in the CPE assay with EV-D68 US/MO/14-18947 in R.D. cells. Cytotoxicity CC50 value was determined using the neutral red uptake method in R.D. cells. The results are the mean±standard deviation of two independent experiments with three repeats in each experiment.
as §1, §2, §3

The next data set deals with R.D. cells. Description: Cytotoxicity by neutral red uptake in R.D. cells, no viral infection. The class given is cell-based, Human. How it is done: as §4, §5
Assay in data set [2]: as above
Format: cell-based, Human. Particulars: human, R.D. (rhabdomyosarcoma, ATCC CCL-136) cells, uninfected. As for the experimental part: as §4, §5

[3] abbreviates: CPE assay, EV-D68 US/MO/14-18947 in R.D. cells.
Setting [4] is: Enterovirus D, EVD68, RD, read-out: Antiviral EC50, CPE assay, EV-D68 US/MO/14-18947 in R.D. cells.

Molecules are shown by their SMILES. Values joined by “and” are separate entries in the source; they are usually repeats but may differ in a detail not shown here. Identical values can stand only once. Like-named read-outs stand apart in the source and are kept apart here.

Regarding `CCC[C@H](NC(=O)[C@@H]1[C@H]2CCC[C@H]2CN1C(=O)[C@@H](NC(=O)C=Cc1ccccc1)C(C)(C)C)C(=O)C(=O)NC1CC1` [Jun8813, (1S,3aR,6aS)-2-((S)-2-cinnamamido-3,3-dimethylbutanoyl)-N—((S)-1-(cyclopropylamino)-1,2-dioxohexan-3-yl)octahydrocyclopenta[c]pyrrole-1-carboxamide], the “enzymatic inhibition, in words, relative to the named comparator” value at EV-D68 2A^pro is “reduced enzymatic inhibition and antiviral activity compared to telaprevir”. The “antiviral activity, in words, relative to the named comparator” value in the data set on EV-D68 US/MO/14-18947 (setting [3]) is “reduced enzymatic inhibition and antiviral activity compared to telaprevir”. The IC50 (usually the concentration that gives 50% inhibition) in data set [1] was found to be 760 ± 320 nM.

In the case of `CCC[C@H](NC(=O)[C@@H]1[C@H]2CCC[C@H]2CN1C(=O)[C@@H](NC(=O)CC12CC3CC(CC(C3)C1)C2)C(C)(C)C)C(=O)C(=O)NC1CC1` [Jun8861], half-maximal cytotoxicity in the data set on R.D. cells (CC50) was put at 36200 nM. Also, on EV-D68 2A^pro, the IC50 is 80 to 140 nM and 80 nM. In addition, the EC50 in the data set with EV-D68 US/MO/14-18947 (setting [4]) is 160 to 750 nM; in the data set with EV-D68 US/MO/14-18947 (read-out: Antiviral EC50, CPE assay, EV-D68 US/MO/14-18947 in R.D. cells), 160 nM.

For `CC(C)(C)[C@H](NC(=O)CC12CC3CC(CC(C3)C1)C2)C(=O)N1C[C@@H]2CCC[C@@H]2[C@H]1C(=O)N[C@H](C(=O)C(=O)NC1CC1)C1CCCC1` [Jun11808, (1S,3aR,6aS)-2-((S)-2-(2-((3S,5S,7S)-adamantan-1-yl)acetamido)-3,3-dimethylbutanoyl)-N—((S)-1-cyclopentyl-3-(cyclopropylamino)-2,3-dioxopropyl)octahydrocyclopenta[c]pyrrole-1-carboxamide], the “enzymatic inhibition, in words, relative to the named comparator” value on EV-D68 2A^pro is “comparable enzymatic inhibition and antiviral activity as Jun8861”. The “antiviral activity, in words, relative to the named comparator” value with EV-D68 US/MO/14-18947 (setting [3]) is “comparable enzymatic inhibition and antiviral activity as Jun8861”. In data set [1], this compound displayed an IC50 of 200 ± 70 nM.

Take `CCC[C@H](NC(=O)[C@@H]1[C@H]2CCC[C@H]2CN1C(=O)[C@@H](NC(=O)CC1CCCC1)C(C)(C)C)C(=O)C(=O)NC1CC1` [Jun971, (1S,3aR,6aS)-2-((S)-2-(2-cyclopentylacetamido)-3,3-dimethylbutanoyl)-N—((S)-1-(cyclopropylamino)-1,2-dioxohexan-3-yl)octahydrocyclopenta[c]pyrrole-1-carboxamide]: the IC50 at EV-D68 2A^pro is 80 to 140 nM; in data set [1], 100 ± 10 nM. In addition, the EC50 in the data set on EV-D68 US/MO/14-18947 (setting [4]) fell in the range of 160 to 750 nM.

For `CCC[C@H](NC(=O)[C@@H]1[C@H]2CCC[C@H]2CN1C(=O)[C@@H](NC(=O)OCc1ccccc1)C(C)(C)C)C(=O)C(=O)NC1CC1` [Jun7426, Benzyl ((S)-1-((1S,3aR,6aS)-1-(((S)-1-(cyclopropylamino)-1,2-dioxohexan-3-yl)carbamoyl)hexahydrocyclopenta[c]pyrrol-2(1H)-yl)-3,3-dimethyl-1-oxobutan-2-yl)carbamate], on EV-D68 2A^pro, the “enzymatic inhibition, in words, relative to the named comparator” value is “reduced enzymatic inhibition and antiviral activity compared to telaprevir”. Besides, the “antiviral activity, in words, relative to the named comparator” value with EV-D68 US/MO/14-18947 (setting [3]) is “reduced enzymatic inhibition and antiviral activity compared to telaprevir”. In data set [1], the IC50 amounted to 760 ± 100 nM.

Regarding `CCC[C@H](NC(=O)[C@@H]1[C@H]2CCC[C@H]2CN1C(=O)[C@@H](NC(=O)CC1CCC(F)(F)CC1)C(C)(C)C)C(=O)C(=O)NC1CC1` [Jun975, (1S,3aR,6aS)—N—((S)-1-(cyclopropylamino)-1,2-dioxohexan-3-yl)-2-((S)-2-(2-(4,4-difluorocyclohexyl)acetamido)-3,3-dimethylbutanoyl)octahydrocyclopenta[c]pyrrole-1-carboxamide], the results for the IC50 (at EV-D68 2A^pro; in data set [1]) were 80 to 140 nM and 140 ± 10 nM, respectively. Besides, the EC50 in the data set on EV-D68 US/MO/14-18947 (setting [4]) is 160 to 750 nM.

`CC(C)(C)C(NC(=O)CC12CC3CC(CC(C3)C1)C2)C(=O)N1CC2CCCC2C1C(=O)NC(Cc1ccccc1)C(=O)C(=O)NC1CC1` [Jun11385, (1S,3aR,6aS)-2-((S)-2-(2-((3S,5S,7S)-adamantan-1-yl)acetamido)-3,3-dimethylbutanoyl)-N—((S)-4-(cyclopropylamino)-3,4-dioxo-1-phenylbutan-2-yl)octahydrocyclopenta[c]pyrrole-1-carboxamide]: the CC50 (as a rule, the concentration at which the toxic effect on the cells reaches its halfway point) in data set [2] amounted to 17400 nM.

In the case of `CCC[C@H](NC(=O)[C@@H]1[C@H]2CCC[C@H]2CN1C(=O)[C@@H](NC(=O)Cc1ccccc1)C(C)(C)C)C(=O)C(=O)NC1CC1` [Jun8681, (1S,3aR,6aS)—N—((S)-1-(cyclopropylamino)-1,2-dioxohexan-3-yl)-2-((S)-3,3-dimethyl-2-(2-phenylacetamido)butanoyl)octahydrocyclopenta[c]pyrrole-1-carboxamide], the “enzymatic inhibition, in words, relative to the named comparator” value on EV-D68 2A^pro was “reduced enzymatic inhibition and antiviral activity compared to telaprevir”. The “antiviral activity, in words, relative to the named comparator” value in the data set on EV-D68 US/MO/14-18947 (setting [3]) is “reduced enzymatic inhibition and antiviral activity compared to telaprevir”. For the same compound, half-maximal inhibition in data set [1] (IC50) required 250 ± 20 nM.

With `CCC[C@H](NC(=O)[C@@H]1[C@H]2CCC[C@H]2CN1C(=O)[C@@H](NC(=O)CC1CCCCC1)C(C)(C)C)C(=O)C(=O)NC1CC1` [Jun8814, (1S,3aR,6aS)-2-((S)-2-(2-cyclohexylacetamido)-3,3-dimethylbutanoyl)-N—((S)-1-(cyclopropylamino)-1,2-dioxohexan-3-yl)octahydrocyclopenta[c]pyrrole-1-carboxamide], the half-inhibitory concentration (IC50) is 80 to 140 nM at EV-D68 2A^pro and 90 ± 10 nM in data set [1]. Also, the EC50 in the data set with EV-D68 US/MO/14-18947 (setting [4]) lay in the range of 160 to 750 nM.
